From patent US7524927B2, “Compositions, method and kits relating to deletion mutations of immunodeficiency virus gp120 hypervariable regions” (priority 2003, dated 2009) come the findings set out here.

Like-named read-outs stand apart in the source and are kept apart here.

The target in one test is T1, CXCR4 (Homo sapiens, UniProt P61073).
T1 construct: expressed in transfected cells
It is filed as binding. As to the method:
Western blot binding assay. […] In this assay, the gp120 of interest is added to cells expressing the desired coreceptor either in the absence or presence of sCD4. After binding for 30 min, the cells are washed, lysed, and bound gp120 detected by western blot.

The subject of another test is ΔV1/V2; ΔV3(6,6) virus. Particulars: SupT1 cells. The text has this:
(§1) This bicyclam specifically blocks CXCR4 function and its ability to serve as a receptor for X4 Envs by binding to two Asp residues at the base of the CXCR4 second and […] extracellular loops.

Another test relates to ΔV3(6,6) virus. Particulars: SupT1 cells.
Excerpt: (§2) Each virus was innoculated onto SupT1 cells in the presence of varying concentrations of AMD3100 (0, 10, 100, 1,000, and 10,000 nm as indicated).
as §1

The next test concerns VCP Env pseudotype. Particulars: U87/CD4/CXCR4 target cells. The protocol:
(§3) FIG. 9B is a diagram depicting AMD3100 sensitivity for viral pseudotypes containing the indicated Envs as indicated, i.e., VCP, V3(6,6); V1/V2, and V3(6,6). Sensitivity to AMD3100 was assessed using U87/CD4/CXCR4 target cells. Two different Env clones comprising deletion of V3(6,6) in combination with deletion of V1/V2 are depicted.

The subject of another test is V3(6,6) Env pseudotype. Particulars: U87/CD4/CXCR4 target cells. As to the method: as §3
Test [1] deals with V3(6,6); V1/V2 Env pseudotypes. Particulars: U87/CD4/CXCR4 target cells; two Env clones. As to the method:
as §3

Test [2] deals with HIV-2/VCP virus (wildtype VCP). Kind of test: microbe, parasite or virus in culture.
Excerpt: as §2, §1

T1 sequence (P61073 whole entry): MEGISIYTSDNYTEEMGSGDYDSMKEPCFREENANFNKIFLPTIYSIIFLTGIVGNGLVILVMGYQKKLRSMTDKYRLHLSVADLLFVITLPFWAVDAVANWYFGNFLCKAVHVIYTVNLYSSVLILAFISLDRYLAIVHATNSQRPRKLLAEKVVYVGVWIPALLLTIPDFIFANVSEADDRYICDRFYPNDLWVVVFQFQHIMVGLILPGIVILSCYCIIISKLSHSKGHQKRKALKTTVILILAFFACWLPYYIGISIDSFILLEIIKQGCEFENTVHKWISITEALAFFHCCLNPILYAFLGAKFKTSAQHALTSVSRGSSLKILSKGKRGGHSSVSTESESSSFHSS

On to “SDF-1: natural chemokine ligand of CXCR4 [reference compound]”, for which the “Inhibition of VCP gp120 binding to CXCR4-expressing cells” value with CXCR4 (VCP gp120) was “inhibitable”.
Take `c1cc(CN2CCCNCCNCCCNCC2)ccc1CN1CCCNCCNCCCNCC1` [AMD3100]: the “AMD3100 concentration at which virus could not be blocked” value in the test with ΔV1/V2; ΔV3(6,6) virus and in the test on ΔV3(6,6) virus (ΔV3(6,6) virus) was “greater than 10,000 nM” each time. Moreover, the “Resistance of virus to AMD3100” value with ΔV3(6,6) virus (adapted (p16) virus, up to 10,000 nm AMD3100) was “completely resistant”. For the same compound, the “AMD3100 sensitivity of pseudotype” value in the test with VCP Env pseudotype is “sensitivity”; in the test with V3(6,6) Env pseudotype, “complete resistance”; in test [1], “complete resistance”. On CXCR4, the “Inhibition of VCP gp120 binding to CXCR4-expressing cells” value is “inhibitable”. Further, the “Sensitivity of virus to AMD3100” value in test [2] (0, 10, 100, 1,000, and 10,000 nm AMD3100, SupT1 cells) is on record as “sensitive”. Besides, in test [2] (Human immunodeficiency virus 2, SUP-T1, read-out: IC50 for inhibition of infection of SupT1 cells), the IC50 was approximately 50 nM.

Usually IC50 stands for the concentration that inhibits the measured activity by half.
